Experimental data taken from ChEMBL document CHEMBL1145177, “Further naphthylcombretastatins. An investigation on the role of the naphthalene moiety” (J Med Chem, 2005).

Legend:
Assay type in all cases: functional, cell-based
[1] = tested on: P388; assay: Inhibitory concentration value against murine P-388 tumor cell line; settings: Mus musculus
[2] = Inhibitory concentration value against human MEL-28 or human cancer HeLa tumor cell line
[3] = tested on: HT-29; assay: Inhibitory concentration value against human colon adenocarcinoma HT-29 tumor cell line
[4] = tested on: HL-60; assay: Inhibitory concentration value against human colon carcinoma H-116 or human cancer HL-60 tumor cell line
[5] = tested on: A549; assay: Inhibitory concentration value against human A-549 tumor cell line
[6] = tested on: HCT-116; assay: Inhibitory concentration value against human colon carcinoma H-116 tumor cell line
[7] = tested on: SK-MEL-28; assay: Inhibitory concentration value against human MEL-28 tumor cell line

| Compound | IC50 [1] [µM] | IC50 [2] [µM] | IC50 [3] [µM] | IC50 [4] [µM] | IC50 [5] [µM] | IC50 [6] [µM] | IC50 [7] [µM] |
| --- | --- | --- | --- | --- | --- | --- | --- |
| COc1cc(/C=C\c2ccc(N(C)C)c([N+](=O)[O-])c2)cc(OC)c1OC | > 5 | > 5 | > 5 | > 5 | > 5 | – | – |
| COc1cc(/C=C/c2ccc(N(C)C)c(N)c2)cc(OC)c1OC | 1.52 | 1.52 | 0.3 | 1.52 | 1.52 | – | – |
| C(=C\c1ccco1)/c1ccc2ccccc2c1 | > 5 | – | > 5 | – | > 5 | > 5 | > 5 |
| COc1ccc(/C=C\c2ccc3ccccc3c2)cc1[N+](=O)[O-] | > 20 | – | 3.28 | – | > 20 | > 20 | > 20 |
| C(=C/c1ccco1)/c1ccc2ccccc2c1 | > 5 | – | > 5 | – | > 5 | > 5 | > 5 |
| COc1cc(/C=C/c2cn(C(C)=O)c3ccccc23)cc(OC)c1OC | > 5 | > 5 | > 5 | > 5 | > 5 | – | – |
| Cn1ccc2cc(/C=C/c3ccc4ccccc4c3)ccc21 | > 5 | – | > 5 | – | 3.53 | > 5 | > 5 |
| COc1ccc(/C=C/c2ccc3ccccc3c2)cc1N | > 5 | – | > 5 | – | 1.82 | 1.82 | > 5 |
| COc1ccc(/C=C/c2ccc3ccccc3c2)cc1[N+](=O)[O-] | > 5 | – | > 5 | – | > 5 | > 5 | > 5 |
| COc1ccc(/C=C/c2ccc3ccccc3c2)cc1 | > 5 | – | > 5 | – | > 5 | > 5 | > 5 |
| COc1cc(/C=C/c2occc2C)cc(OC)c1OC | 3.65 | 3.65 | 3.65 | 3.65 | 3.65 | – | – |
| FC(F)(F)c1ccc(/C=C/c2ccc3ccccc3c2)cc1 | > 5 | – | > 5 | – | > 5 | > 5 | > 5 |
| COc1ccc(/C=C/c2ccc3ccccc3c2)cc1F | 4.49 | – | > 5 | – | > 5 | > 5 | > 5 |
| COc1ccc(/C=C/c2ccc3ccccc3c2)cc1C(=O)CN | > 5 | – | > 5 | – | > 5 | > 5 | > 5 |
| Cc1ccc(/C=C\c2ccc3ccccc3c2)cc1 | > 5 | – | > 5 | – | > 5 | > 5 | > 5 |
| CN(C)c1c([N+](=O)[O-])cc(/C=C/c2ccc3ccccc3c2)cc1[N+](=O)[O-] | > 5 | > 5 | > 5 | > 5 | > 5 | – | – |
| COc1cc(/C=C\c2ccc3c(ccn3S(=O)(=O)c3ccccc3)c2)cc(OC)c1OC | > 5 | > 5 | > 5 | > 5 | > 5 | – | – |
| Cn1ccc2cc(/C=C\c3ccc4ccccc4c3)ccc21 | > 5 | – | > 5 | – | > 5 | > 5 | > 5 |
| O=S(=O)(c1ccccc1)n1ccc2cc(/C=C\c3ccc4ccccc4c3)ccc21 | > 5 | – | > 5 | – | > 5 | > 5 | > 5 |
| FC(F)(F)c1ccc(/C=C\c2ccc3ccccc3c2)cc1 | > 5 | – | > 5 | – | > 5 | > 5 | > 5 |
| CN(C)c1ccc(/C=C/c2ccc3ccccc3c2)cc1 | 3.66 | – | 3.66 | – | 3.66 | 3.66 | 3.66 |
| COc1cc(/C=C/c2ccc3c(ccn3S(=O)(=O)c3ccccc3)c2)cc(OC)c1OC | > 5 | > 5 | > 5 | > 5 | > 5 | – | – |
| CC(=O)Oc1ccc(/C=C/c2ccc3ccccc3c2)cc1 | > 5 | – | > 5 | – | > 5 | > 5 | > 5 |
| Oc1ccc(/C=C/c2ccc3ccccc3c2)cc1 | 4.06 | – | 4.06 | – | 4.06 | 4.06 | 4.06 |
| COc1cc(/C=C\c2c[nH]c3ccccc23)cc(OC)c1OC | 3.23 | 3.23 | 3.23 | 3.23 | 3.23 | – | – |
| Cc1ccc(/C=C/c2ccc3ccccc3c2)cc1 | > 5 | – | > 5 | – | > 5 | > 5 | > 5 |
| FC(F)(F)Oc1ccc(/C=C/c2ccc3ccccc3c2)cc1 | > 5 | – | > 5 | – | > 5 | > 5 | > 5 |

| Compound | IC50 [1] [µM] | IC50 [2] [µM] | IC50 [3] [µM] | IC50 [4] [µM] | IC50 [5] [µM] | IC50 [6] [µM] | IC50 [7] [µM] |
| --- | --- | --- | --- | --- | --- | --- | --- |
| Cn1c2ccccc2c2cc(/C=C/c3ccc4ccccc4c3)ccc21 | > 5 | – | > 5 | – | > 5 | > 5 | > 5 |
| C(=C/c1ccc2ccccc2c1)/c1ccc2c(c1)-c1ccccc1C2 | > 5 | – | > 5 | – | > 5 | > 5 | > 5 |
| COc1ccc(/C=C\c2ccc3ccccc3c2)cc1N | 1.82 | – | 1.82 | – | > 20 | 0.36 | > 20 |
| C(=C/c1ccc2[nH]ccc2c1)/c1ccc2ccccc2c1 | > 5 | – | > 5 | – | > 5 | > 5 | > 5 |
| COc1ccc(/C=C\c2ccc3ccccc3c2)cc1C(=O)CN | > 5 | – | > 5 | – | 1.58 | > 5 | > 5 |
| C(=C/c1ccc2ccccc2c1)/c1ccoc1 | > 5 | – | > 5 | – | > 5 | > 5 | > 5 |
| C(=C\c1ccc2ccccc2c1)/c1ccc2c(c1)-c1ccccc1C2 | > 5 | – | > 5 | – | > 5 | > 5 | > 5 |
| COc1cc(/C=C\c2ccc3ccccc3c2)cc(N)c1OC | 1.64 | 1.64 | 0.33 | 0.33 | 1.64 | – | – |
| COCCOc1cc(/C=C\c2ccc3ccccc3c2)ccc1OC | 2.99 | – | 2.99 | – | 2.99 | 2.99 | 2.99 |
| COc1c(N)cc(/C=C/c2ccc3ccccc3c2)cc1N | > 5 | > 5 | > 5 | > 5 | > 5 | – | – |
| COc1cc(/C=C/c2cn(C)c3ccccc23)cc(OC)c1OC | 3.09 | 3.09 | 3.09 | 3.09 | 3.09 | – | – |
| COc1cc(/C=C\c2ccc3ccccc3c2)cc(NC(C)=O)c1OC | > 5 | > 5 | > 5 | > 5 | > 5 | – | – |
| COc1cc(/C=C\c2cn(C(C)=O)c3ccccc23)cc(OC)c1OC | 2.85 | 2.85 | 2.85 | 2.85 | 2.85 | – | – |
| COc1cc(/C=C/c2c[nH]c3ccccc23)cc(OC)c1OC | 3.23 | 3.23 | 3.23 | 3.23 | 3.23 | – | – |
| FC(F)(F)Oc1cccc(/C=C\c2ccc3ccccc3c2)c1 | 3.5 | – | 3.5 | – | 3.5 | 3.5 | 3.5 |
| CCN(CC)c1cc(/C=C/c2ccc3ccccc3c2)ccc1OC | > 5 | – | > 5 | – | > 5 | > 5 | > 5 |
| COc1c([N+](=O)[O-])cc(/C=C\c2ccc3ccccc3c2)cc1[N+](=O)[O-] | > 5 | > 5 | > 5 | > 5 | > 5 | – | – |
| C(=C/c1cccc2ccccc12)/c1ccc2ccccc2c1 | 3.57 | – | 3.57 | – | 3.57 | 3.57 | 3.57 |
| COc1c([N+](=O)[O-])cc(/C=C/c2ccc3ccccc3c2)cc1[N+](=O)[O-] | > 5 | > 5 | > 5 | > 5 | > 5 | – | – |
| C(=C\c1ccc2ccccc2c1)/c1ccoc1 | > 5 | – | > 5 | – | > 5 | > 5 | > 5 |
| COc1c(N)cc(/C=C\c2ccc3ccccc3c2)cc1N | 5 | > 5 | > 5 | 5 | > 5 | – | – |
| CN(C)c1ccc(/C=C\c2ccc3ccccc3c2)cc1 | 3.66 | – | 3.66 | – | 3.66 | 3.66 | 3.66 |
| COCCOc1cc(/C=C/c2ccc3ccccc3c2)ccc1OC | 2.99 | – | > 5 | – | 2.99 | > 5 | 2.99 |
| CN(C)c1c([N+](=O)[O-])cc(/C=C\c2ccc3ccccc3c2)cc1[N+](=O)[O-] | > 5 | > 5 | 2.75 | 2.75 | > 5 | – | – |
| COc1cc(/C=C/c2ccc(N(C)C)c([N+](=O)[O-])c2)cc(OC)c1OC | > 5 | > 5 | > 5 | > 5 | > 5 | – | – |
| O=S(=O)(c1ccccc1)n1ccc2cc(/C=C/c3ccc4ccccc4c3)ccc21 | > 5 | – | > 5 | – | > 5 | > 5 | > 5 |
| Cn1c2ccccc2c2cc(/C=C\c3ccc4ccccc4c3)ccc21 | > 5 | – | > 5 | – | > 5 | > 5 | > 5 |
